Assay results from ChEMBL document CHEMBL1133345, “The synthesis and evaluation of 2-substituted-7-(alkylidene)cephalosporin sulfones as beta-lactamase inhibitors” (Bioorg Med Chem Lett, 2000).

Assays:
Beta-lactamase class C = Beta-lactamase class C (Enterobacter cloacae, UniProt Q59401); assay: Inhibition of Class C beta-lactamase from Enterobacter cloacae strain P99
Beta-lactamase TEM = Beta-lactamase TEM (Escherichia coli, UniProt P62593); assay: The compound was evaluated for inhibition against Beta-lactamase TEM […]
Beta-lactamase TEM, sequence (P62593 whole entry): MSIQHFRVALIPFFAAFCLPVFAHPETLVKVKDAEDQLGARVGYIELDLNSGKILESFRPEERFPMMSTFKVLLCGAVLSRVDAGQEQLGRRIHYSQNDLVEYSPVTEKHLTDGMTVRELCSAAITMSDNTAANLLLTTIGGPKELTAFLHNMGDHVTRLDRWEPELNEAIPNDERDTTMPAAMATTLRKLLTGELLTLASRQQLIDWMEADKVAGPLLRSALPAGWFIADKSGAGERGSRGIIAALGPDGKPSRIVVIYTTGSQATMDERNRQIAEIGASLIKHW

Beta-lactamase = Beta-lactamase (Staphylococcus aureus, UniProt P00807); assay: The compound was evaluated for inhibition against Beta-lactamase derived from Staphylococcus aureus
Beta-lactamase, sequence (P00807 whole entry): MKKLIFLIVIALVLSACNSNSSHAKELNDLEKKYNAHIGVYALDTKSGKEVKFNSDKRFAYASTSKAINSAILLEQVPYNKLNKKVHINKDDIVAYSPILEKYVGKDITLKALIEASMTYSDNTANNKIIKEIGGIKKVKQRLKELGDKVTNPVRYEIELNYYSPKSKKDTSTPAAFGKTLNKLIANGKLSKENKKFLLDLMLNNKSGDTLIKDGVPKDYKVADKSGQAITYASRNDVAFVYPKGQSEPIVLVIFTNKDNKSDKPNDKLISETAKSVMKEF

Beta-lactamase class C, sequence (Q59401 whole entry): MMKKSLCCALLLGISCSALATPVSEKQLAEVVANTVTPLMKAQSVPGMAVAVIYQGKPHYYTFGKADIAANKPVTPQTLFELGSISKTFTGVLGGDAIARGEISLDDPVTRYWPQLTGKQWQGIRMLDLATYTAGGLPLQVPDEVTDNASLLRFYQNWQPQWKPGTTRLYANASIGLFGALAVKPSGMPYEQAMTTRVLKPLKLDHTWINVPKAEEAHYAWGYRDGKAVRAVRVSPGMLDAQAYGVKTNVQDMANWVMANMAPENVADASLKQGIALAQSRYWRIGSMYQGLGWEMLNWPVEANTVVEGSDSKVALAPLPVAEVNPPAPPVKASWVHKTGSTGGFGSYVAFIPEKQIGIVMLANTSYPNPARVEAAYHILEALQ

Row | SMILES | IC50 (Beta-lactamase class C) | IC50 (Beta-lactamase TEM) | IC50 (Beta-lactamase)
1 | C=C1C(C)=C(C(=O)O)N2C(=O)/C(=C/C(=O)O)[C@H]2S1(=O)=O | 36.8 µM | 277 µM | –
2 | CC(=O)OCC1=C(C(=O)O)N2C(=O)/C(=C/c3ccccn3)[C@H]2S(=O)(=O)C1 | 0.498 µM | 34.8 µM | 402 µM
3 | C=C1C(COC(C)=O)=C(C(=O)O)N2C(=O)/C(=C/C(=O)OC(C)(C)C)[C@H]2S1(=O)=O | 1.55 µM | – | –
4 | CSC(SC)=C1C(C)=C(C(=O)O)N2C(=O)/C(=C/c3ccccn3)[C@H]2S1(=O)=O | 0.51 µM | 173 µM | –
5 | C=C1C(C)=C(C(=O)O)N2C(=O)/C(=C/c3ccccn3)[C@H]2S1(=O)=O | 0.039 µM | 91.1 µM | 1860 µM
6 | C=C1C(COC(C)=O)=C(C(=O)O)N2C(=O)/C(=C/c3ccccn3)[C@H]2S1(=O)=O | 0.165 µM | – | 733 µM
7 | C=C1C(CSc2nnnn2C)=C(C(=O)O)N2C(=O)/C(=C/C(=O)OC(C)(C)C)[C@H]2S1(=O)=O | 2.38 µM | 1.13 µM | –
8 | C=C1C(C)=C(C(=O)O)N2C(=O)/C(=C/C(=O)OC(C)(C)C)[C@H]2S1(=O)=O | 48.6 µM | – | –
9 | C=C1C(COC(C)=O)=C(C(=O)O)N2C(=O)/C(=C/C(=O)O)[C@H]2S1(=O)=O | 2.49 µM | 498 µM | 230 µM
10 | CC1=C(C(=O)O)N2C(=O)/C(=C/c3ccccn3)[C@H]2S(=O)(=O)[C@@H]1Sc1nnnn1C | 29 µM | 31.6 µM | 844 µM
11 | CC1=C(C(=O)O)N2C(=O)/C(=C/c3ccccn3)[C@H]2S(=O)(=O)C1C (stereo partly drawn) | 3.9 µM | 74.1 µM | 102 µM
12 | CC(=O)OCC1=C(C(=O)O)N2C(=O)/C(=C/C(=O)OC(C)(C)C)[C@H]2S(=O)(=O)C1 | 6.56 µM | 0.03 µM | 977 µM
